This passage reports melting point results from a melting point compilation (Tetko et al.; mined from patent text by program, amines drawn as free bases though some values may be those of a salt).

`CS(=O)(=O)OCC(C(=O)N1CCC(=C2c3ccc(Cl)cc3CCc3cccnc32)CC1)c1ccccc1` (centres undefined): the melting point (as a rule, the temperature of the solid-liquid transition) lay in the range of 111 to 112 °C.

Consider `CCNC(=O)Nc1ccc(N(C)C)cc1C(=O)NCC1CCN(C(c2ccccc2)c2ccccc2)CC1`, for which the melting point was 186 to 188 °C.

`CCOC(=O)c1nc2n(c(=O)c1OCc1ccccc1)CCCC2` registered a melting point of 151 °C.

For the molecule `CCCc1nc(C(=O)C(C)(C)C)c(C#N)n1Cc1ccc(-c2ccccc2-c2nnnn2C(c2ccccc2)(c2ccccc2)c2ccccc2)cc1`, the melting point was in the range of 107 to 110 °C.

As to `COc1ccc(N2CCN(c3c(C)c(C)c4c(c3C)C(c3cccc5ccccc35)C(C)(C)O4)CC2)cc1` (centres undefined), the melting point lay within 165 to 166 °C.

On to `O=S(=O)(CCl)c1ccc(O)c(Br)c1`, for which the melting point lay in the range of 158 to 160 °C.

`O=C(Nc1ccc([N+](=O)[O-])cc1Cl)c1ccc(C(=O)Nc2ccc([N+](=O)[O-])cc2Cl)cc1` returned a melting point of 339 °C.

`CC(C)c1cccc(C(C)C)c1NC(=O)CN1CCN(CCCSc2nc3ccccc3s2)CC1` returned a melting point of 113 to 115 °C.

In turn, `CCOC(OCC)C(=O)Nc1ccc(Cl)cc1N` had a melting point of 89 to 90 °C.

The molecule `CC(C)C[C@H](NC(=O)CCS(=O)(=O)c1ccccc1)C(=O)N[C@@H](C(C)C)[C@@H](O)c1c(-c2ccccc2)c1=O` yielded a melting point of 100 to 106 °C.

On to `CCCCc1nn(-c2cc(NC(C)=O)ccc2Cl)c(=O)n1Cc1ccc(-c2cc(CCC)ccc2S(=O)(=O)NC(=O)c2ccccc2F)cc1F`, for which the melting point is 148 to 150 °C.

The molecule `CCCCC(CC)C(=O)Nc1ccc2ccn(Cc3ccc(C(=O)OC)cc3)c2c1` (centres undefined) came in with a melting point of 139 to 141 °C.

As to `COc1ccc2sc3cc(-c4nnn[nH]4)ccc3c(=O)c2c1`, the melting point was above 350 °C.

On to `COc1ccccc1NC(=O)Nc1nc(Nc2ccccc2-c2ccccc2)nc(N2CCCC(C(=O)O)C2)n1` (centres undefined), for which the melting point was 245 to 247 °C.

Molecule `COC(=O)C(C(=O)OC)C(Cc1cc(C(F)(F)F)ccc1[N+](=O)[O-])c1ccc(OC)cc1` (centres undefined) displayed a melting point of 110 to 112 °C.

On to `COc1ccc(C2=C(c3c4n(c5ccccc35)CCC(COC(C)=O)C4)C(=O)OC2=O)cc1` (centres undefined), for which the melting point was in the range of 79 to 82 °C.

Turning to `O=C1c2ccccc2C(=O)C1c1ccncn1`, the melting point fell in the range of 168 to 169 °C.

Consider `O=C1C2CC(c3ccc([N+](=O)[O-])cc3)(C2)C(=O)N1C1CCCCC1`, for which the melting point is 163 to 164 °C.

As to `c1ccc2c(c1)Cc1cccnc1O2`, the melting point was in the range of 87 to 88 °C.

`Fc1ccc(-c2[nH]cc(CCCN3CCCCC3)c2-c2ccncc2)cc1` returned a melting point of 195 to 197 °C.

For `Cn1ncc(N2CCCCC2)c(-c2ccccc2C=O)c1=O`, the melting point lay in the range of 134 to 135 °C.

In turn, `CCCCCCCCOc1cnc(-c2ccc(OC(=O)[C@H]3CCCO3)cc2)nc1` yielded a melting point of 90 °C.

With `NCC(C(=O)O)C1CCCCC1` (centres undefined), the melting point fell in the range of 238 to 240 °C.

`C[C@@H]([C@@H](O)c1ccc(O)cc1)N1CCC(O)(c2ccccc2)CC1` (relative stereo) returned a melting point of 202 to 204 °C.

In the case of `O=C(O)C(=O)C=Cc1ccccc1F`, the melting point lay in the range of 100 to 102 °C.

`COc1cc(Cc2cnc(N)nc2N)cc(-c2ccc(N(C)C)cc2)c1OC` yielded a melting point of 230 °C.

`CC(C)c1nc2ccccc2n1CCCCCSc1nc(-c2ccc(N(C)C)cc2)c(-c2ccc(N(C)C)cc2)[nH]1` yielded a melting point of 110 to 112 °C.

Molecule `CNC(=S)NS(=O)(=O)c1cc(CCNC(=O)/C=C/c2cccs2)ccc1OCCOC` yielded a melting point of 140 °C.

`OCc1cnoc1-c1ccc(Cl)c(Cl)c1` displayed a melting point of 101 to 102 °C.

`COc1cc(-c2cnc(N[N+](=O)[O-])[nH]c2=O)ccn1` gave a melting point of 194 to 196 °C.

The molecule `Clc1ccc(C2C=Cc3cc(Br)cnc3O2)cc1Cl` (centres undefined) gave a melting point of 100 to 101 °C.

In turn, `CCCCCS(=O)(=O)NC(=O)/C=C/c1ccc(OCCOC(C)=O)cc1Oc1ncc(C(F)(F)F)cc1Cl` had a melting point of 141 to 144 °C.

In turn, `COCCNC(=O)c1ccc(SC)c([N+](=O)[O-])c1` displayed a melting point of 117 to 118 °C.

`Cc1ccc2c(c1)Cn1nnnc1C(=S)N2` had a melting point of 293 to 296 °C.

For `O=C(O)CCSC1c2ccc(SCC(=O)O)cc2COc2ccc(OCc3ccc4ccc(Cl)cc4n3)cc21` (centres undefined), the melting point lay within 165 to 167 °C.

In turn, `CCOC(=O)C(Cc1ccc(OCCN2CCC(C)(C)c3cc(C(=NOC)c4ccccc4)ccc32)cc1)OCC(F)(F)F` (centres undefined) came in with a melting point of 58 to 60 °C.

Molecule `C#CCON=C(CCC)C1=C(O)CC(c2ccc(C(=O)SC)cc2)CC1=O` (centres undefined) returned a melting point of 95 to 96 °C.

The molecule `N#CC1=C(c2ccc(Cl)s2)Nc2n[nH]cc2C1c1cccc2nonc12` (centres undefined) registered a melting point of 210 °C.

The molecule `CC(C)N=C(NC(C)C)ON1C(C)(C)CC(O)CC1(C)C` showed a melting point of 118 to 123 °C.

`CC1(C)Oc2ccc(C(=O)CCl)cc2S1`: the melting point was 84 to 86 °C.

The molecule `CCCCc1nc2ncccc2[nH]1` registered a melting point of 80 °C.

Consider `CCOc1c(C(F)(F)F)ncn(-c2c(Cl)cc(C(F)(F)F)cc2[N+](=O)[O-])c1=O`, for which the melting point lay in the range of 97.5 to 100 °C.

With `Cc1cc(-n2c(=O)[nH]c3ccccc32)cc2c1NC(=O)CC2C` (centres undefined), the melting point lay within 250 to 254 °C.

Take `CC(C)Cn1c(=O)n(C)c(=O)c2c(C#CCCO)n(Cc3cccc4ccccc34)cc21`: the melting point lay in the range of 170 to 171 °C.

Take `COC(=O)c1ccc(O)c(OC2CCCC2)c1`: the melting point lay within 73 to 75 °C.

Molecule `Cc1c(Cl)cccc1S(=O)(=O)Nc1ccc2ncccc2c1` had a melting point of 228 °C.

Molecule `COc1ccc(C(CN(C)C)c2nnc3n2-c2ccc(Cl)cc2C(c2ccccc2)=NC3)cc1` (centres undefined) registered a melting point of 138 to 142 °C.

`N#Cc1n[nH]c2nc(N3CCCNCC3)ccc12`: the melting point fell in the range of 196 to 197 °C.

As for `N#Cc1cc(-c2ccoc2)c2ccc(COc3cc(F)cc(-c4ccccn4)c3)cc2n1`, the melting point was in the range of 198 to 200 °C.

Consider `CN(O)C(=O)N1CCC(C(c2ccccc2)c2ccccc2)CC1`, for which the melting point lay in the range of 143 to 144 °C.

`Cc1oc2c(C)c(C)c(NC(=O)c3ccc(F)cc3)c(C)c2c1-c1ccc(C(C)C)cc1` displayed a melting point of 242 to 245 °C.

Turning to `CCc1noc(-c2cn(-c3ccc(Oc4ccccc4)cc3)cn2)n1`, the melting point was 172 to 173 °C.

For `CN1C(C(=O)Nc2ccccc2)=C(O)c2sc3ccccc3c2S1(=O)=O`, the melting point lay within 261 to 263 °C.

In turn, `O=Cc1cc(=O)c(OCc2ccccc2)c(C(=O)c2ccc(Cc3ccc(F)cc3)o2)o1` returned a melting point of 69 to 72 °C.

As for `CON1CCC2(CC1)C(OCc1ccccc1)=C(c1c(C)cc(C)cc1C)C(=O)N2C`, the melting point lay within 139 to 141 °C.

`CCCCc1nc2cccc(C(=O)OC)c2n1Cc1ccc(-c2ncncc2C#N)cc1` came in with a melting point of 131 to 133 °C.

The molecule `CC(=O)c1cn(C(c2ccccc2)(c2ccccc2)c2ccccc2)cn1` displayed a melting point of 158 to 160 °C.

Consider `Cc1c(NC(=O)c2ccc(-c3ccc4c(c3)OCO4)cc2F)ccc2cc(CN3CCCC3)cnc12`, for which the melting point lay in the range of 181 to 182 °C.

In turn, `Cn1ccc(=S)c2ccccc21` came in with a melting point of 208 to 210 °C.

Regarding `CC(C)N1CCN(c2ccc(C(=O)NC3(C(=O)NCC#N)CCCCC3)cc2)CC1`, the melting point fell in the range of 218 to 220 °C.

Regarding `CSc1nccc(C)c1NC(=O)CSc1nc2ccccc2o1`, the melting point lay within 146 to 148 °C.

The molecule `CCCc1nc2c(N)nc3ccccc3c2n1CCOCCCS(=O)(=O)c1ccccc1C` showed a melting point of 159 to 160 °C.

Molecule `CCCCCCCCCCCCCCCCNc1ccc(C(=O)OCC(C)O)cc1` (centres undefined) had a melting point of 91 to 93 °C.

As for `O=C1NC(=O)C(Cc2ccc(OCCn3ccc4ccccc43)cc2)S1` (centres undefined), the melting point is 42.3 to 44.6 °C.

In the case of `CC(=O)NCc1ccc(CN2CCN(c3ccc(Cl)cc3)CC2)cc1`, the melting point was 180 to 182 °C.

In turn, `CCC(=O)C(Cc1cc(O)c(O)c([N+](=O)[O-])c1)C(=O)CC` displayed a melting point of 126 to 131 °C.

In turn, `COc1ccc(-c2nc(-c3nccn3Cc3ccccc3)[nH]c2-c2ccc(OC)cc2)cc1` came in with a melting point of 180 °C.

Regarding `CC(O)C(C)Sc1cc(C(C)(C)C)c(O)c(C(C)(C)C)c1` (centres undefined), the melting point was 73 °C.

As for `COc1cc2c(cc1OC)C(C(=O)O)SCC2` (centres undefined), the melting point fell in the range of 167 to 169 °C.

As to `O=C(O)C1=CC2C(=O)NC(=O)C2(CCO)C=C1` (centres undefined), the melting point was 197 to 198 °C.

`CC(C)(C)OC(=O)NC1C(=O)N(OCc2ccccc2)C12CCC2` (centres undefined): the melting point lay within 156 to 157 °C.

Molecule `COC(=O)C(=Cc1cc(OC)c(OC)cc1Br)c1ccccc1C(=O)OC` showed a melting point of 117 to 119 °C.

`Oc1ccc2c(c1)COc1c-2cc2ccc(O)cc2c1Cl` registered a melting point of 230 to 231 °C.

`CCNC1CCN(c2cccc(-c3cnc4[nH]cc(C(=O)C(C)(C)C)c4n3)c2)C1` (centres undefined): the melting point fell in the range of 200 to 202 °C.

For the molecule `CC(C)(O)C1CCC(CNC(=O)c2cccnc2Oc2cccc(C#N)c2)CC1` (centres undefined), the melting point was in the range of 129 to 130 °C.

`O=C(Nc1nc(C(Cl)(Cl)Cl)ns1)c1ccc(Cl)cc1Cl` showed a melting point of 136 °C.

Regarding `O=C(O)Cc1c(C(=O)c2ccc(-c3nccs3)cc2)[nH]c2cc(Cl)ccc12`, the melting point lay within 230 to 233 °C.

With `CC1=NC(NC(=O)Nc2cccc(Br)c2)C(=O)N(CC(=O)N2CC3CCC(CC3)C2)c2c(C)cccc21` (centres undefined), the melting point is 168 to 171 °C.

In turn, `CC(C)c1nn(-c2ccc(C(F)(F)F)cn2)cc1CCCO` displayed a melting point of 87 to 88 °C.

In the case of `O=C(NCc1ccc(Cl)c(Cl)c1)c1cn2c(=O)n(Cc3ccc(Cl)cc3)c(=O)cc2s1`, the melting point was 218 to 219 °C.

The molecule `O=C1CCC(N2Cc3cc(CNC(=S)Nc4ccc(SC(F)(F)F)cc4)ccc3C2=O)C(=O)N1` (centres undefined) gave a melting point of 229 to 231 °C.

`CNC(=O)CC1CSc2c(C(=O)OC(C)C)c(C)cn21` (centres undefined) had a melting point of 108 to 109 °C.

As for `O=C1c2c(Cl)cccc2-n2cncc2[C@@H]2CCN12`, the melting point was in the range of 207 to 208 °C.

Consider `NC(=O)c1ccccc1C1c2ccc(Cl)cc2Oc2cc(Cl)ccc21`, for which the melting point lay within 218 to 220 °C.
